Test [1] deals with T1, PfMyoA (Plasmodium falciparum myosin A) (Plasmodium falciparum, UniProt Q8IDR3). The experiment in a line: X-ray crystal structure, […] Å. The class given is binding. Details: gene MyoA; with PfELC and PfMTIP light chains.
Target sequence in this assay (Q8IDR3 whole entry): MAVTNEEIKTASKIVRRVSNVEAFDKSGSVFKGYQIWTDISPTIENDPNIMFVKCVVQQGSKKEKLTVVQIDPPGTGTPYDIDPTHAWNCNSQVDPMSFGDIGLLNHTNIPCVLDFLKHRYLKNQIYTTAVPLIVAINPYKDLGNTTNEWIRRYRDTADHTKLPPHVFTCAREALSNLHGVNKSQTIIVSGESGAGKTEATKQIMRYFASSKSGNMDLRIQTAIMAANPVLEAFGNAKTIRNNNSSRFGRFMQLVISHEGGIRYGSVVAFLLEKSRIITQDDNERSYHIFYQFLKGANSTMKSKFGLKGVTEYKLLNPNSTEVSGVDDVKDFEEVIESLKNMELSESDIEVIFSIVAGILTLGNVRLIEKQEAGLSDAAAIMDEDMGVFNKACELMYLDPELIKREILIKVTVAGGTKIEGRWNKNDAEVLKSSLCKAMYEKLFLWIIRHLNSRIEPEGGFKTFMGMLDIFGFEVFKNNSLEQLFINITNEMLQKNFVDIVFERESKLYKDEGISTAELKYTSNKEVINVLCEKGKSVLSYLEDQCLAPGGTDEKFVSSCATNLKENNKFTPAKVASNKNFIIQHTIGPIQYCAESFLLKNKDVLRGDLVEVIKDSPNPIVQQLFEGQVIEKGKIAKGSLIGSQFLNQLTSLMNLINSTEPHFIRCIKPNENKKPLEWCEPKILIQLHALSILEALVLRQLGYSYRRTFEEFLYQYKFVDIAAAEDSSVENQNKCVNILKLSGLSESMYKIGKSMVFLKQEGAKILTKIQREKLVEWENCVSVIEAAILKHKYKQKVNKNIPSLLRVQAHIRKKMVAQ
Target sequence in this assay (Q8I4W8 entry or part of it, further chain): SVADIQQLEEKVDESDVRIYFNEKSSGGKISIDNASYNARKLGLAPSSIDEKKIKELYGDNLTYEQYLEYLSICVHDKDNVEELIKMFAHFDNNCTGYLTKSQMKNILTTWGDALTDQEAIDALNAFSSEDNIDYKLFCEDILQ
Target sequence in this assay (Q8IJM4 entry or part of it, further chain): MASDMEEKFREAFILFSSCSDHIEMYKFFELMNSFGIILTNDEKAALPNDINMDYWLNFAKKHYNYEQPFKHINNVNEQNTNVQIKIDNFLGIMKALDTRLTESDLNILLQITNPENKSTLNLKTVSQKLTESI
Test [2] concerns the target T1, PfMyoA (Plasmodium falciparum myosin A). Description: X-ray crystal structure, […] Å. In kind it is binding. More on the design: gene MyoA; with PfELC and PfMTIP light chains. The source holds these as a separate data set.
Target sequence in this assay (Q8IDR3 whole entry): as the sequence (Q8IDR3 whole entry) above
Target sequence in this assay (Q8IJM4 entry or part of it, further chain): as the sequence (Q8IJM4 entry or part of it, further chain) above
For test [3] the target is unchanged. The experiment in a line: X-ray crystal structure ([…] Å) and affinity measurement for nucleotide-free PfMyoA; also basal and actin-activated ATPase inhibition (IC50 […]). The class given is binding. More on the design: gene MyoA; with PfELC and PfMTIP light chains.
Target sequence in this assay (Q8IDR3 whole entry): as the sequence (Q8IDR3 whole entry) above
Target sequence in this assay (Q8IJM4 entry or part of it, further chain): as the sequence (Q8IJM4 entry or part of it, further chain) above
Target sequence in this assay (Q8I4W8 entry or part of it, further chain): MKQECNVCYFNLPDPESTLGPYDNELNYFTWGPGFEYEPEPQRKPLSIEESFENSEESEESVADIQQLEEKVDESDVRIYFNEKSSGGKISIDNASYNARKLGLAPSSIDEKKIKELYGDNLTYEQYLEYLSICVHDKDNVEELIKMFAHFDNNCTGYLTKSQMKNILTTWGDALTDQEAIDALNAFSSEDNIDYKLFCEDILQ
Another test has as its target T2, PfMyoA triple mutant (Plasmodium falciparum, UniProt Q8IDR3, F270Y/F471A/F645H).
T2 construct: gene MyoA; full length PfMyoA heavy chain triple mutant, co-expressed with light chains PfELC and PfMTIP; with PfELC and PfMTIP light chains
Description: basal ATPase assay (NADH-linked). In kind it is biochemical.

For test [4], the target named is T1, PfMyoA (Plasmodium falciparum myosin A). The experiment in a line: stopped-flow fluorescence transient kinetics; Kd printed in text is in the presence of […] KNX-002. In kind it is binding. Details: gene MyoA; full length PfMyoA heavy chain with light chains; with PfELC and PfMTIP light chains.
Target sequence in this assay (Q8IDR3 whole entry): as the sequence (Q8IDR3 whole entry) above
Target sequence in this assay (Q8IJM4 entry or part of it, further chain): as the sequence (Q8IJM4 entry or part of it, further chain) above

T2 sequence (Q8IDR3 whole entry, stated change not applied): as the sequence (Q8IDR3 whole entry) above
T2 sequence (Q8IJM4 whole entry, stated change not applied, further chain): as the sequence (Q8IJM4 entry or part of it, further chain) above

Consider `Nc1ncnc2c1ncn2[C@@H]1O[C@H](COP(=O)(O)OP(=O)(O)O)[C@@H](O)[C@H]1O` [ADP], for which the “X-ray crystal structure, 2.03 Å” value in test [1] was “the substrate was hydrolyzed in PfMyoA/ATPγS/Apo leaving only Mg.ADP in the active site”.

In the case of `Nc1ncnc2c1ncn2[C@@H]1O[C@H](CO[P@](=O)(O)O[P@](=O)(O)O[P@@](=O)(O)S)[C@@H](O)[C@H]1O` [ATPγS], in test [2], the “X-ray crystal structure, 2.2 Å” value is recorded as “unhydrolyzed Mg.ATPyS occupies the active site of PfMyoA/ATPγS/KNX-002”.

`COc1ccc(C2(NCc3c[nH]nc3-c3cccs3)CC2)cc1` [KNX-002]: the affinity in test [3], expressed as Kd, was 8.6 µM. Half-maximal inhibition against PfMyoA triple mutant (IC50) was put at 52 µM.

As for mant-ADP, the Kd (as a rule, the equilibrium constant for the complex coming apart) in test [4] is 3.5 µM.
